From patent US5837687A, “Azapeptide derivative” (Fujirebio Inc., priority 1994, dated 1998)

Biological target: T1, NKA receptor (Mesocricetus auratus, UniProt P51144)
T1 construct: from tissue; host or cells: hamster respiratory tract (trachea) ring specimens
T1 sequence (P51144 1-384): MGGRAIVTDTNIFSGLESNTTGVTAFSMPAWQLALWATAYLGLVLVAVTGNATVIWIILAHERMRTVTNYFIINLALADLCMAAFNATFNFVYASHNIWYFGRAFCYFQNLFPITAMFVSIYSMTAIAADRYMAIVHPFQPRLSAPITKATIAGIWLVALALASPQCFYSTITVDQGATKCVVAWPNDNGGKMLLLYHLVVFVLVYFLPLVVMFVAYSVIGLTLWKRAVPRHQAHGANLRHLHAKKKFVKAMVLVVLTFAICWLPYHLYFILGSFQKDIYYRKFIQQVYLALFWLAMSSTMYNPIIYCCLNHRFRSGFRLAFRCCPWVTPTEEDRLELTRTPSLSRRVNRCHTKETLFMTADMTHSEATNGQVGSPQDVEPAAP
Assay: Activity to constriction of hamster respiratory tracts caused by NKA (isolated tissue, tension)
Type: cell-based
Experimental: The activity of the azapeptide derivative of the present invention to a NKA receptor was evaluated by the following method.
(1) Activity to constriction of hamster respiratory tracts caused by NKA
Respiratory tracts were taken out from male Syrian strain Golden hamsters having a body weight of 100 to 180 g, and cyclic specimens having a width of 3 to 6 mm were prepared. The specimens were incubated at 37° C. and suspended by loading a static tension of 0.5 g, in a reaction tank charged with 15 ml of a Tyrode solution (137 mM of NaCl, 2.7 mM of KCl, 1.8 mM of CaCl2, 1.02 mM of MgCl2, 11.9 mM of NaHCO3, 0.42 mM of NaH2 PO4 and 5.5 mM of glucose) in which 95% O2 -5% CO2 had been passed.
The compound to be tested was charged into the reaction tank and maintained for 5 minutes. 1×10^-7 M of NKA was charged into the reaction tank, and tension caused thereby was recorded. The examined effect of the tested compound as an antagonist was shown by IC50.

Structure (SMILES) | IC50 [nM]
CC(C)(C)OC(=O)N[C@@H](CC(=O)OCc1ccccc1)C(=O)N[C@@H](CCC(N)=O)C(=O)N[C@@H](Cc1c[nH]c2ccccc12)C(=O)NN(Cc1ccccc1)C(N)=O [Example 1 (3), Boc-Asp(OBzl)-Gln-Trp-AzPhe-NH2] | 45
CC(C)(C)OC(=O)N[C@@H](Cc1c[nH]c2ccccc12)C(=O)NN(Cc1ccccc1)C(=O)NCCOCc1ccccc1 [Example 2 (1), Boc-Trp-AzPhe-NH(CH2)2 OCH2 Ph] | 310
CC(C)(C)OC(=O)N[C@@H](CCC(N)=O)C(=O)N[C@@H](Cc1c[nH]c2ccccc12)C(=O)NN(Cc1ccccc1)C(=O)NCCOCc1ccccc1 [Example 2 (2), Boc-Gln-Trp-AzPhe-NH(CH2)2 OCH2 Ph] | 0.66
CC(C)(C)OC(=O)N[C@@H](CC(=O)OCc1ccccc1)C(=O)N[C@@H](CCC(N)=O)C(=O)N[C@@H](Cc1c[nH]c2ccccc12)C(=O)NN(Cc1ccccc1)C(=O)NCCOCc1ccccc1 [Example 2 (3), Boc-Asp(OBzl)-Gln-Trp-AzPhe-NH(CH2)2 OCH2 Ph] | 1.9
CC(C)CCC(=O)N[C@@H](CCC(N)=O)C(=O)N[C@@H](Cc1c[nH]c2ccccc12)C(=O)NN(Cc1ccccc1)C(=O)NCCOCc1ccccc1 [Example 3, i-Pent-CO-Gln-Trp-AzPhe-NH(CH2)2 OCH2 Ph] | 0.6
NC(=O)CC[C@H](NC(=O)c1ccccc1)C(=O)N[C@@H](Cc1c[nH]c2ccccc12)C(=O)NN(Cc1ccccc1)C(=O)NCCOCc1ccccc1 [Example 4, Bz-Gln-Trp-AzPhe-NH(CH2)2 OCH2 Ph] | 2.3
NC(=O)CC[C@H](NC(=O)C1CCCC1)C(=O)N[C@@H](Cc1c[nH]c2ccccc12)C(=O)NN(Cc1ccccc1)C(=O)NCCOCc1ccccc1 [Example 5, cyPent-CO-Gln-Trp-AzPhe-NH(CH2)2 OCH2 Ph] | 2.2
CC(C)(C)NC(=O)N[C@@H](CCC(N)=O)C(=O)N[C@@H](Cc1c[nH]c2ccccc12)C(=O)NN(Cc1ccccc1)C(=O)NCCOCc1ccccc1 [Example 6, t-Bu-NHCO-Gln-Trp-AzPhe-NH(CH2)2 OCH2 Ph] | 0.6
CC(C)CCNC(=O)N[C@@H](CCC(N)=O)C(=O)N[C@@H](Cc1c[nH]c2ccccc12)C(=O)NN(Cc1ccccc1)C(=O)NCCOCc1ccccc1 [Example 7, i-Pent-NHCO-Gln-Trp-AzPhe-NH(CH2)2OCH2 Ph] | 0.5
NC(=O)CC[C@H](NC(=O)NC1CCCC1)C(=O)N[C@@H](Cc1c[nH]c2ccccc12)C(=O)NN(Cc1ccccc1)C(=O)NCCOCc1ccccc1 [Example 8, cyPent-NHCO-Gln-Trp-AzPhe-NH (CH2)2 OCH2 Ph] | 0.7
CC(C)(C)OC(=O)N[C@@H](CCS(C)(=O)=O)C(=O)N[C@@H](Cc1c[nH]c2ccccc12)C(=O)NN(Cc1ccccc1)C(=O)NCCOCc1ccccc1 [Example 9, Boc-Met(O2)-Trp-AzPhe-NH (CH2)2 OCH2 Ph] | 1.4
CC(C)(C)OC(=O)N[C@@H](CC(N)=O)C(=O)N[C@@H](Cc1c[nH]c2ccccc12)C(=O)NN(Cc1ccccc1)C(=O)NCCOCc1ccccc1 [Example 10, Boc-Asn-Trp-AzPhe-NH(CH2)2 OCH2 Ph] | 6.8
CSCC[C@H](NC(=O)OC(C)(C)C)C(=O)N[C@@H](Cc1c[nH]c2ccccc12)C(=O)NN(Cc1ccccc1)C(=O)NCCOCc1ccccc1 [Example 11, Boc-Met-Trp-AzPhe-NH(CH2)2 OCH2 Ph] | 8.9
CC(C)(C)OC(=O)N[C@@H](CCCNC(=O)OCc1ccccc1)C(=O)N[C@@H](Cc1c[nH]c2ccccc12)C(=O)NN(Cc1ccccc1)C(=O)NCCOCc1ccccc1 [Example 13 (1), Boc-Orn(Z)-Trp-AzPhe-NH (CH2)2 OCH2 Ph] | 80
CC(C)(C)OC(=O)N[C@@H](CCCN)C(=O)N[C@@H](Cc1c[nH]c2ccccc12)C(=O)NN(Cc1ccccc1)C(=O)NCCOCc1ccccc1 [Example 13 (2), Boc-Orn-Trp-AzPhe-NH(CH2)2 OCH2 Ph] | 78
CC(C)(C)OC(=O)N[C@@H](CCCNC(N)=O)C(=O)N[C@@H](Cc1c[nH]c2ccccc12)C(=O)NN(Cc1ccccc1)C(=O)NCCOCc1ccccc1 [Example 14, Boc-Cit-Trp-AzPhe-NH(CH2)2 OCH2 Ph] | 24
CC(C)(C)OC(=O)N[C@@H](CCCNC(=N)N[N+](=O)[O-])C(=O)N[C@@H](Cc1c[nH]c2ccccc12)C(=O)NN(Cc1ccccc1)C(=O)NCCOCc1ccccc1 [Example 15, Boc-Arg(NO2)-Trp-AzPhe-NH(CH2)2 OCH2 Ph] | 35

Structure (SMILES) | IC50 [nM]
CC(C)(C)OC(=O)N[C@@H](CC(=O)OCc1ccccc1)C(=O)N[C@@H](Cc1c[nH]c2ccccc12)C(=O)NN(Cc1ccccc1)C(=O)NCCOCc1ccccc1 [Example 16 (1), Boc-Asp(OBzl)-Trp-AzPhe-NH(CH2)2 OCH2 Ph] | 13
CC(C)(C)OC(=O)N[C@@H](CC(=O)O)C(=O)N[C@@H](Cc1c[nH]c2ccccc12)C(=O)NN(Cc1ccccc1)C(=O)NCCOCc1ccccc1 [Example 16 (2), Boc-Asp-Trp-AzPhe-NH(CH2)2 OCH2 Ph] | 13
CC(C)(C)OC(=O)N[C@@H](CCC(N)=O)C(=O)N[C@@H](Cc1c[nH]c2ccccc12)C(=O)NN(Cc1ccccc1)C(=O)NCc1ccc(F)cc1 [Example 17 (2), Boc-Gln-Trp-AzPhe-NHCH2 Ph(4-F)] | 29
CC(C)(C)OC(=O)N[C@@H](CC(=O)OCc1ccccc1)C(=O)N[C@@H](CCC(N)=O)C(=O)N[C@@H](Cc1c[nH]c2ccccc12)C(=O)NN(Cc1ccccc1)C(=O)NCc1ccc(F)cc1 [Example 17 (3), Boc-Asp(OBzl)-Gln-Trp-AzPhe-NHCH2 Ph(4-F)] | 4.2
CC(C)(C)OC(=O)N[C@@H](CCC(N)=O)C(=O)N[C@@H](Cc1c[nH]c2ccccc12)C(=O)NN(Cc1ccccc1)C(=O)NCCOCc1ccc(F)cc1 [Example 18 (2), Boc-Gln-Trp-AzPhe-NH(CH2)2 OCH2 Ph(4-F)] | 5.6
CC(C)(C)OC(=O)N[C@@H](CC(=O)OCc1ccccc1)C(=O)N[C@@H](CCC(N)=O)C(=O)N[C@@H](Cc1c[nH]c2ccccc12)C(=O)NN(Cc1ccccc1)C(=O)NCCc1ccccc1 [Example 19 (3), Boc-Asp(OBzl)-Gln-Trp-AzPhe-NH(CH2)2 Ph] | 5.3
CC(C)(C)OC(=O)N[C@@H](CC(=O)OCc1ccccc1)C(=O)N[C@@H](CCC(N)=O)C(=O)N[C@@H](Cc1c[nH]c2ccccc12)C(=O)NN(Cc1ccccc1)C(=O)NCc1ccccc1 [Example 20 (3), Boc-Asp(OBzl)-Gln-Trp-AzPhe-NHCH2 Ph] | 1.7
CC(C)CCC(=O)N[C@@H](CC(=O)OCc1ccccc1)C(=O)N[C@@H](CCC(N)=O)C(=O)N[C@@H](Cc1c[nH]c2ccccc12)C(=O)NN(Cc1ccccc1)C(=O)NCc1ccccc1 [Example 21, i-Pent-CO-Asp(OBzl)-Gln-Trp-AzPhe-NHCH2 Ph] | 1.7
COc1ccc(CNC(=O)N(Cc2ccccc2)NC(=O)[C@H](Cc2c[nH]c3ccccc23)NC(=O)[C@H](CCC(N)=O)NC(=O)[C@H](CC(=O)OCc2ccccc2)NC(=O)OC(C)(C)C)c(OC)c1 [Example 22, Boc-Asp(OBzl)-Gln-Trp-AzPhe-NHDmob] | 4900
CNC(=O)N(Cc1ccccc1)NC(=O)[C@H](Cc1c[nH]c2ccccc12)NC(=O)[C@H](CCC(N)=O)NC(=O)[C@H](CC(=O)OCc1ccccc1)NC(=O)OC(C)(C)C [Example 23 (3), Boc-Asp(OBzl)-Gln-Trp-AzPhe-NHCH3] | 78
CC(C)(C)OC(=O)N[C@@H](CC(=O)OCc1ccccc1)C(=O)N[C@@H](CCC(N)=O)C(=O)N[C@@H](Cc1c[nH]c2ccccc12)C(=O)NN(Cc1ccccc1)C(=O)NCCO [Example 24 (2), Boc-Asp(OBzl)-Gln-Trp-AzPhe-NH(CH2)2 OH] | 46
CC(C)CNC(=O)N(Cc1ccccc1)NC(=O)[C@H](Cc1c[nH]c2ccccc12)NC(=O)[C@H](CCC(N)=O)NC(=O)[C@H](CC(=O)OCc1ccccc1)NC(=O)OC(C)(C)C [Example 25 (3), Boc-Asp(OBzl)-Gln-Trp-AzPhe-NHCH2 CH(CH3)2] | 34
CC(C)(C)OC(=O)N[C@@H](CC(=O)OCc1ccccc1)C(=O)N[C@@H](CCC(N)=O)C(=O)N[C@@H](Cc1c[nH]c2ccccc12)C(=O)NN(Cc1ccccc1)C(=O)N1CCOCC1 [Example 26 (3), Boc-Asp(OBzl)-Gln-Trp-AzPhe-M] | 830
CC(C)(C)OC(=O)N[C@@H](CC(=O)OCc1ccccc1)C(=O)N[C@@H](CCC(N)=O)C(=O)N[C@H](Cc1c[nH]c2ccccc12)C(=O)NN(Cc1ccccc1)C(N)=O [Example 27 (3), Boc-Asp(OBzl)-Gln-D-Trp-AzPhe-NH2] | 990
CC(C)(C)OC(=O)N[C@@H](CC(=O)OCc1ccccc1)C(=O)N[C@@H](CCC(N)=O)C(=O)N[C@@H](Cc1c[nH]c2ccccc12)C(=O)NN(Cc1ccccc1)C(=O)OCc1ccccc1 [Example 28 (3), Boc-Asp(OBzl)-Gln-Trp-AzPhe-OBzl] | 27
CC(C)(C)OC(=O)N[C@@H](CC(=O)OCc1ccccc1)C(=O)N[C@@H](CCC(N)=O)C(=O)N[C@@H](Cc1c[nH]c2ccccc12)C(=O)NN(Cc1ccccc1)C(=O)Nc1ccccc1 [Example 29 (3, Boc-Asp(OBzl)-Gln-Trp-AzPhe-NHPh] | 190
